Where two headings read alike, the source gives them in different places. Bounds are passed on as bounds.

Data set [1] deals with LNCaP cells. Put plainly: Cell cycle distribution (PI staining, FACS). The conditions noted are these: LNCaP cells, 0, 50, 100 and 200 nM, 24 h. The format is cell-based, human. On the procedure:
LNCaP cells were treated with 0, 50, 100 and 200 nM of compound 13 for 24 h (FIG. 11A). Cells were then harvested and fixed with 70% ethanol. Cell cycle distribution was determined by propidium iodide (P1) staining and analyzed by fluorescence-activated cell sorting (FACS) analysis.

Data set [2] in a line: Plasma pharmacokinetics in mice. It is filed as in vivo. The conditions noted are these: for bioavailability: read-out: absolute bioavailability. Here is the method: A single dose (10 mg/kg) and various routes of administration (intravenous, oral, and subcutaneous) were used in order to approximate its in vivo disposition and interpret the results of subchronic toxicity studies and forthcoming in vivo xenograft studies. Diindole 13 was administered to groups (n=60) of mice for each route of administration. Mice (n=5 per time point) were sacrificed at up to twelve different time points (pre-dose and up to 24 h post-dose), and plasma samples were stored at −80° C. until HPLC analysis. An HPLC/UV analytical method was developed and validated to determine diindole 13 concentrations in plasma, with a linear range of 0.02 to 20 μg/mL and intra- and inter-day coefficients of variation at all concentrations less than 6%.

Data set [3] has as its system Tubulin proteins. Put plainly: Tubulin polymerization in vitro (absorbance 340 nm). The format is biochemical. The note with it: 20 μM, 37° C., 30 minutes. On the procedure: Cell viability (LNCaP, PC-3 prostate, DU145, PPC-1, and TSU-Pr1 prostate cancer cell lines, HT-29 colon cancer cell line, and MCF-7 breast cancer cell line) was quantitated using the sulforhodamine B (SRB) assay after 96 h coincubation with different concentrations of compound in 96-well plates. Cell viability of leukemia cells (K562 and doxorubicin-resistant K562/Dox) was quantitated by MTT assay after 96 h coincubation with different concentrations of compound in 96-well plates. Drug-induced apoptosis was determined by anti-histone ELISA assay and DNA laddering. Cell cycle progression was assessed by propidium iodide staining and fluorescence-activated cell sorting (FACS) analysis. In vitro tubulin polymerization assay was determined by CytoDYNAMIX ScreenTM3 (CDS-03) kits according to the manufacturer's instructions. […]
Tubulin proteins (greater than 99% purity) were suspended (300 μg per sample) with 100 μl G-PEM buffer composed of 80 mM PIPES (piperazine-N,N′-bis(2-ethanesulfonic acid)), 2 mM MgCl2, 0.5 mM egtazic acid and 1.0 mM guanosine triphosphate (GTP), pH 6.9, plus 5% glycerol in the absence or presence of the compound 13 at 4° C. The sample mixture was transferred to the prewarmed 96-well plate and absorbance was detected each minute for 30 minutes at 340 nm at 37° C.

Data set [4] concerns LNCaP and PC-3 cells. Put plainly: DNA fragmentation by agarose gel electrophoresis. The format is cell-based, human. On the procedure: LNCaP and PC-3 cells were treated with different concentrations of drugs for different periods of time. At the end of the incubation, both floating and adherent cells were collected. […] DNA was visualized by ethidium bromide staining and UV transillumination.

A short description of data set [5]: Subchronic toxicity in ICR mice. It is filed as in vivo. From the text: The maximally tolerated dose (MTD) in the mouse was identified. […] Body weight changes and morbidity in treated animals were used as a direct measure of toxicity.
Data set [6] relates to PC-3 cells. Put plainly: Indirect immunofluorescence microscopy of microtubules. The format is cell-based, human. The note with it: 24 h, anti-α-tubulin-FITC. Here is the method: PC-3 cells were plated on poly-D-lysine coated glass cover slips in 6-well plates (5×10^4 cells/well) the day before treatment. After cells were incubated with cytotoxic agents at 37° C. for 24 h, cells were fixed on the cover slips with 4% formaldehyde in PBS for 10 min and permeabilized by 2% Triton-X in PBS for 5 min at rt. Fixed cells were blocked with 3% bovine serum albumin in TBST for 30 min and incubated with anti-α-tubulin-FITC antibody (1:100 dilution) at 4° C. overnight. Cover slips were mounted on slides using mounting medium with 4′,6-diamidino-2-phenylindole (DAPI), followed by microscopic analysis with a Zeiss Axioplan 2 fluorescent microscope (Carl Zeiss, Thornwood, N.Y.). Images were acquired with a Zeiss Axiocam HRc, using Zeiss AxioVision.

For data set [7], the system named is cyclin B1, Cdc25C, Cdc2. Description: Western blot of G2-M regulators. It is filed as cell-based, human. The conditions noted are these: PC-3 cells, 24 h treatment. Here is the method:
Treated cells were lysed in cold lysis buffer (20 mM Tris-HCl, pH 7.5, 150 mM NaCl, 1 mM Na2 EDTA, 1% Triton x-100, and freshly added Na3VO4 (2 mM), NaF (20 mM) and complete protease inhibitor cocktail). For each sample, an aliquot (20 to 40 μg) of total protein was loaded and run on a SDS-Page gel. Protein was transferred to nitrocellulose membranes (Bio-Rad Laboratories, Hercules, Calif.), blocked with 5% non-fat milk, incubated with primary antibody overnight at 4° C., and then incubated with secondary antibody at rt for 1 h. ECL™ (GE Healthcare Bio-Sciences Corp., Piscataway, N.J.) was used for detection. The band intensity was measured by densitometry using TotalLab TL100 Software v2006 (Nonlinear Dynamics Ltd., Newcastle upon Tyne, UK).
A general note: Immunoblotting shows a protein as a band on a membrane.

The subject of data set [8] is K562. Description: Growth inhibition assay (MTT, 96 h). It is filed as cell-based. The note with it: Homo sapiens, K562 (parental). The text has this:
MTT (3-(4,5-dimethylthiazol-2-yl)-2,5-diphenyltetrazolium bromide) assay was also used for the leukemia cell lines. […] Cells were stained with SRB solution or MTT solution.

The test system of data set [9] is T1, tubulin.
T1 construct: IC50 of microtubule formation (tubulin polymerization); other: cell free, turbidity 340 nm, 40 min
Put plainly: In vitro binding assay by spin column. Further details: species or system bovine. The note with it: vinblastine-binding site, 37° C., 1 h.

The subject of data set [10] is tubulin. Description: In vitro binding assay by spin column. Set-up: species or system bovine. The conditions noted are these: colchicine-binding site, 37° C., 1 h.
[11] abbreviates: mouse, plasma, iv, 10 mg/kg, I.V.
Where [12] appears, read: mouse, plasma, po, 10 mg/kg, P.O.
[13] abbreviates: mouse, plasma, sc, 10 mg/kg, S.C.

A word on the bioavailability: it is the share of a dose that reaches the circulation, judged against a reference dose that is usually intravenous. For orientation: AUC means concentration integrated over time. Read a low AUC as less exposure. A word on the Cmax: it is the maximum level reached in the sampled fluid or tissue. As a reminder, the Tmax is the time at which the peak concentration occurs. By clearance is commonly meant the rate of elimination divided by the concentration. Lower therefore signals a low capacity for elimination. By half-life is commonly meant the time needed for the level to fall by half in the phase considered. Read a low half-life as rapid decline. Turning to `O=C(c1cccc(-c2cc3ccccc3[nH]2)c1)c1cc2ccccc2[nH]1` [Compound 13, (1H-indol-2-yl)-[3-(1H-indol-2-yl)phenyl]methanone], the cell cycle arrest entry in data set [1] is on record as “induces G2/M phase arrest”. Also, in data set [2], the “metabolism (LC/MS/MS analysis of metabolites)” value is “extensive oxidative metabolism with subsequent sulfation” and the “volume of distribution relative to total body water (0.6 L/kg)” value is recorded as “about 10 fold”. The compound further had a F in data set [2] (10 mg/kg, I.V.) of 1.00. Also, in data set [2] (10 mg/kg, P.O.), the CL stood at 14.3 L/h/kg and the F is on record as 0.20. In data set [2] (10 mg/kg, S.C.), this compound displayed a CL of 5.7 L/h/kg and an F of 0.73. Moreover, in data set [2] (after intravenous administration), the “drug excreted unchanged in urine and feces” value was “less than 5%”. The hepatic extraction result in [2] (from clearance and hepatic blood flow […]) is reported as “exceeding 0.75”. In addition, the bioavailability in [2] (mouse, plasma, 10 mg/kg, oral (P.O.)) is 29%. In data set [2] (setting [11]), the AUC is 2.41 µg·h/mL, the peak level (Cmax) was 2.86 µg/mL, the Tmax is 0.08 h and the clearance was about 4 L/h/kg. The half-life in [2] (setting [11]) was under 3 h. Besides, the Vd in [2] (mouse, plasma, iv, 10 mg/kg, I.V., read-out: Vss) worked out at 6.35 L/kg. For the same compound, in data set [2] (setting [12]), the AUC worked out at 0.69 µg·h/mL, the Cmax amounted to 0.12 µg/mL, the Tmax is about 3 h and the half-life was 2.97 h. For the same compound, in [2] (setting [13]), the AUC worked out at 1.77 µg·h/mL, the highest level (Cmax) was 0.31 µg/mL, the time of peak concentration (Tmax) was about 3 h and the half-life is 4.52 h. For the same compound, the bioavailability in [2] (mouse, plasma, sc, 10 mg/kg, subcutaneous (S.C.)) was 73%. Further, in [3], the “effect on tubulin polymerization” value is “completely block”. Moreover, the DNA fragmentation entry in data set [4] is recorded as “induced DNA fragmentation”. Also, in data set [5] (50, 100 and 200 mg/kg S.C., 4 weeks, 5-days on/2 days off), the tolerability entry is “generally well tolerated”. Further, the “morbidity or rate of gain in body weight vs control” value in data set [5] (50 or 100 mg/kg S.C., 4 weeks) is reported as “no significant difference”. In addition, the “less body weight gain as compared to control animals” value in data set [5] (highest dose (200 mg/kg) S.C., 4-week treatment) is given as 20%.

Take `CC[C@]1(O)C[C@@H]2CN(CCc3c([nH]c4ccccc34)[C@@](C(=O)OC)(c3cc4c(cc3OC)N(C)[C@H]3[C@@](O)(C(=O)OC)[C@H](OC(C)=O)[C@]5(CC)C=CCN6CC[C@]43[C@@H]65)C2)C1` [Vinblastine]: the “microtubule changes by immunofluorescence” value in [6] was “short microtubules”.

As a reminder, the IC50 is the point on the concentration scale where inhibition reaches its midpoint. Turning to `COc1cc(C(=O)c2cccc(-c3cc4ccccc4[nH]3)c2)cc(OC)c1OC` [Compound 68, [3-(1H-Indol-2-yl)-phenyl]-(3,4,5-trimethoxy-phenyl)-methanone], in [7], the “concentration at which cyclin B1 accumulation, Cdc25C (Ser216) and Cdc2 dephosphorylation were observed” value is listed as “higher than 50 nM”. Moreover, in [8], the IC50 was determined as 0.0236 ± 0.0024 µM. The “displacement of [3H]vinblastine from tubulin” value in data set [9] is “not able to displace”. In addition, in data set [10], the “[3H]podophyllotoxin binding to tubulin” value was “inhibited”.
